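Cells were grown in 96-well plates and exposed to each compound for 48 hours at five concentrations; endpoints were interpolated linearly between bracketing concentrations, or set to the highest concentration if not reached. Here, GI50 denotes the concentration required for 50% inhibition of growth. Definition used: TGI = concentration required for complete inhibition of growth.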
Experiments:
Test in all cases: DTP human tumour cell line panel, 48 h
HCT-15 colon = test system: HCT-15 colon
OVCAR-3 ovarian = test system: OVCAR-3 ovarian
K-562 leukemia = test system: K-562 leukemia
LOX IMVI melanoma = test system: LOX IMVI melanoma
UACC-62 melanoma = test system: UACC-62 melanoma
SF-539 CNS = test system: SF-539 CNS
A549 NSCLC = test system: A549 NSCLC
SK-MEL-28 melanoma = test system: SK-MEL-28 melanoma
EKVX NSCLC = test system: EKVX NSCLC
SNB-19 CNS = test system: SNB-19 CNS
OVCAR-8 ovarian = test system: OVCAR-8 ovarian
MDA-N = test system: MDA-N
MDA-MB-231 breast = test system: MDA-MB-231 breast

Row | Structure (SMILES) | TGI (HCT-15 colon) | TGI (OVCAR-3 ovarian) | TGI (K-562 leukemia) | TGI (LOX IMVI melanoma) | TGI (UACC-62 melanoma) | TGI (SF-539 CNS) | TGI (A549 NSCLC) | TGI (SK-MEL-28 melanoma) | TGI (EKVX NSCLC) | TGI (SNB-19 CNS) | TGI (OVCAR-8 ovarian) | TGI (MDA-N) | TGI (MDA-MB-231 breast) | GI50 (HCT-15 colon) | GI50 (UACC-62 melanoma) | GI50 (SF-539 CNS) | GI50 (SK-MEL-28 melanoma) | GI50 (EKVX NSCLC) | GI50 (OVCAR-8 ovarian)
1 | COc1ccc(/C=C2/C(=O)N(C(=O)c3ccc(Cl)cc3)N=C2C)cc1OC | > 100 µM | > 100 µM | > 100 µM | > 100 µM | > 100 µM | > 100 µM | > 100 µM | > 100 µM | > 100 µM | > 100 µM | > 100 µM |  |  |  |  |  |  |  | 
2 | Cc1ccc(S(=O)(=O)N/N=C2\C(=O)C3CC2C(Cl)C3Cl)cc1 (stereo not drawn) | > 100 µM | > 100 µM | > 100 µM | > 100 µM | > 100 µM |  | > 100 µM | > 100 µM |  | > 100 µM | > 100 µM |  |  |  |  |  |  |  | 
3 | COc1ccc2c(c1)c(Cc1c(C)n(C)c3ccc(OC)cc13)c(C)n2C | > 100 µM | > 100 µM | > 100 µM | > 100 µM | > 100 µM | > 100 µM | > 100 µM | > 100 µM | > 100 µM | > 100 µM | > 100 µM |  |  |  |  |  |  |  | 
4 | CC(SC1=CC(=O)c2c(Cl)ccc(O)c2C1=O)C(=O)O (stereo not drawn) | 33.9 µM |  | > 100 µM | 21.7 µM |  | 32.8 µM | 48.1 µM | 32.9 µM | 39.9 µM |  | 36.3 µM |  |  |  |  |  |  |  | 
5 | C/C(C=O)=C1\C(O)C[C@]1(C)C1CC(C)(C)CC1O (stereo partly drawn) |  | > 100 µM | > 100 µM | > 100 µM |  | > 100 µM | > 100 µM | > 100 µM | > 100 µM | > 100 µM | > 100 µM |  |  |  |  |  |  |  | 
6 | COc1c(O)cc(/C=C/c2cc(O)cc3c2[C@@]2(C(=O)O3)c3c(O)cc(O)cc3OC2c2cccc(O)c2)cc1O (stereo partly drawn) | > 100 µM | > 100 µM | 91.9 µM | > 100 µM | 72 µM | > 100 µM | > 100 µM | > 100 µM |  | > 100 µM | > 100 µM | > 100 µM | > 100 µM |  |  |  |  |  | 
7 | COc1ccc(CCN2CCC(C#N)(c3ccc(OC)c(OC)c3)CC2)cc1OC | > 100 µM | > 100 µM | > 100 µM | > 100 µM | > 100 µM | > 100 µM | > 100 µM | > 100 µM | > 100 µM | > 100 µM | > 100 µM |  |  |  |  |  |  |  | 
8 | CCCCOC(=O)/C(CC(=O)C=C(C)C)=N\NS(=O)(=O)c1ccc(C)cc1 | > 100 µM | > 100 µM | > 100 µM | > 100 µM | > 100 µM | > 100 µM | > 100 µM | > 100 µM | > 100 µM | > 100 µM | > 100 µM |  |  |  |  |  |  |  | 
9 | CC1C2CC(C(C3C(=O)C4CC3C(C)(C)C4C)C2=O)C1(C)C (stereo not drawn) |  | > 100 µM | > 100 µM |  | > 100 µM | > 100 µM | > 100 µM | > 100 µM | > 100 µM | > 100 µM | > 100 µM | > 100 µM | > 100 µM |  |  |  |  |  | 
10 | C1CSCC2(COC2)CS1 |  |  | > 100 µM | > 100 µM |  |  | > 100 µM | > 100 µM |  | > 100 µM | > 100 µM | > 100 µM |  |  |  |  |  |  | 
11 | O=C1/C(=C/c2cccc([N+](=O)[O-])c2)COc2ccccc21 | 3.11 µM | 13.2 µM | > 28.5 µM | 3.44 µM | 3.19 µM |  | > 100 µM | 7.42 µM | > 92.2 µM | 9.07 µM | 9.19 µM |  |  |  |  |  |  |  | 
12 | Clc1cc(Cl)cc(N2N=C(c3cccc(Nc4ccncc4)c3)CC2c2ccccc2)c1 (stereo not drawn) | 3.31 µM |  |  |  | 3.24 µM | 3.2 µM |  | 3.21 µM | 4.23 µM |  | 4.56 µM |  |  | 1.66 µM | 1.74 µM | 1.72 µM | 1.76 µM | 1.7 µM | 2.07 µM
13 | O=C(CCN(CCO)CCO)Nc1ccc2c(c1)C(=O)c1ccc(NC(=O)CCN(CCO)CCO)cc1C2=O | 19.8 µM | 51.3 µM | 74.4 µM | 56.5 µM | 27.8 µM | 22.3 µM | > 100 µM | 62.6 µM | 55 µM | 86.3 µM | > 100 µM |  |  |  |  |  |  |  | 
14 | COc1ccc2c(OC)c3ccoc3nc2c1O | > 100 µM | > 100 µM | > 100 µM |  | > 100 µM | > 100 µM | > 100 µM | > 100 µM | > 100 µM | > 100 µM | > 100 µM |  |  |  |  |  |  |  | 
15 | CC(=NNC(=S)Nc1ccccc1C)c1cccc(C(C)=NNC(=S)Nc2ccccc2C)n1 | > 100 µM |  | > 100 µM | > 100 µM | > 100 µM | > 100 µM | > 100 µM | > 100 µM | > 100 µM | > 100 µM | > 100 µM | > 100 µM |  |  |  |  |  |  | 
16 | CCCCCCC(N)(CCCCCC)C(=O)Nn1c(C)ccc1C | > 100 µM | > 100 µM | > 100 µM |  | > 100 µM |  | 65.3 µM | > 100 µM | 58.4 µM | > 100 µM | > 100 µM | > 100 µM | > 100 µM |  |  |  |  |  | 
17 | O=C(Nc1ccccc1)N1CCNC1=S | > 100 µM | > 100 µM | > 100 µM | > 100 µM | > 100 µM | > 100 µM | > 100 µM | > 100 µM | > 100 µM |  | > 100 µM | > 100 µM | > 100 µM |  |  |  |  |  | 
18 | CCOC(=O)[C@H]1C[C@@H](C(=O)c2ccccc2)N2N=C(c3ccc(Br)cc3)C=C[C@H]12 | > 100 µM | > 100 µM | > 100 µM | > 100 µM | > 100 µM |  | > 100 µM | > 100 µM |  | > 100 µM | > 100 µM |  | > 100 µM |  |  |  |  |  | 
19 | N#CCCc1nc2ccc(Br)cc2c(=O)n1-c1ccc(O)c([N+](=O)[O-])c1 | 38.3 µM | 41.4 µM | 61.9 µM | 35.5 µM | 38.5 µM | 34.4 µM | > 100 µM | 34.8 µM | 74.3 µM |  | > 100 µM |  |  |  |  |  |  |  | 
20 | Cc1nc2ccccc2nc1NS(=O)(=O)c1ccc(N)cc1 | > 100 µM | > 100 µM | > 100 µM | > 100 µM | > 100 µM | > 100 µM | > 100 µM | > 100 µM | > 100 µM | > 100 µM | > 100 µM |  |  |  |  |  |  |  | 

Source: PubChem BioAssay (NCI)
